One test has as its system PGE2. Description: LPS-induced inflammatory factor PGE2 in mouse blood. The note with it: mouse blood about 12 h after LPS, intra-abdominal. It counts as in vivo. The method, then: (§1) Based on the experimental result in the cell level, the effect of controlling vascular inflammation of the ginseng berry extract was tested in an animal model. Mice were grouped into a non-treated group, an LPS-induced group, a group treated with the ginseng berry extract of Example 1 (50 μg/mL and 100 μg/mL), a group treated with the ginseng berry saponin concentrate of Example 2 (100 μg/mL), a group treated with the ginseng root extract of Comparative Example 1 (100 μg/mL) and groups treated with ginsenosides Rg1, Rg2, Rh1 or Re (10 μg/mL and 20 μg/mL), with 5 mice per each group.
(§2) 100 mg of each test substance per kg body weight of mouse, diluted in saline solution (0.9% NaCl), was intra-abdominally injected three times from day 1 through day 3. 2 hours after the injection on day 3, LPS diluted in saline solution (1 μg/mL) was injected intra-abdominally at a concentration of about 4 mg per kg body weight of mouse to induce inflammation by inflammatory factors (PGE2, TNF-α and IL1-β). After approximately 12 hours, the abdomen of the mouse was cut open, and blood was taken from the artery of the heart and stored at […]. The blood was kept at room temperature for 30 minutes and, after centrifuge at 4° C. and 3,000 rpm for 10 minutes, the supernatant was kept at −20° C. Then, the inflammatory factors PGE2, TNF-α and IL1-β were identified by western blotting. Measurement was made twice and the mean value was calculated. The result is shown in Table 4 and FIG. 9 (PGE2 (ng/mL)), Table 5 and FIG. 10 (TNF-α (ng/mL)), and Table 6 and FIG. 11 (IL1-β (pg/mL)).

The next test concerns Human epidermal cells. Description: Hyaluronic acid production in human epidermal cells. The conditions noted are these: 48 hours, relative to control; sample 10 μg/mL. The test is classed as cell-based. The method, then:
Human epidermal cells were cultured and the medium was replaced by one containing the ginseng berry extract of Example 1 (1 μg/mL, 10 μg/mL and 100 μg/mL), the ginseng berry saponin concentrate of Example 2 (10 μg/mL), the ginseng root extract of Comparative Example 1 (10 μg/mL) or ginsenosides Rg1, Rg2, Rh1 or Re (10 μg/mL) or a general medium (control). The cells were then cultured for 48 hours under the same conditions. Then, the quantity of hyaluronic acid in the groups was compared using a hyaluronic acid measurement kit. The result is given as relative value with respect to the control group in Table 16 and FIG. 20.

Test [1] has as its system Macrophages (Raw 264.7 cells). Description: Inhibition of LPS-induced NO generation in macrophages (Griess reaction). The test is classed as cell-based. The conditions noted are these: LPS 1 μg/mL. How it is done: Effect of inhibiting LPS-induced NO generation in macrophages was tested in order to confirm the effect of inhibiting vascular inflammation of the ginseng berry extract.
Macrophages (Raw 264.7 cells) were cultured in a medium containing 10% serum under the condition of 5% CO2. After culturing on a 96-well plate incubator to a concentration of 2×10^5 cells/well and stimulating with LPS (1 μg/mL), the cells were treated with the ginseng berry extract of Example 1 (50 μg/mL and 100 μg/mL), the ginseng berry saponin concentrate of Example 2 (100 μg/mL), the ginseng root extract of Comparative Example 1 (100 μg/mL) or ginsenosides Rg1, Rg2, Rh1 or Re (10 μg/mL and 20 μg/mL), respectively. After keeping the treated cells at 37° C. for 1 hour, the degree of NO generation was measured to compare the effect of inhibiting LPS-induced NO generation of the test substances. NO generation (μM) was measured using the Griess reaction [Minghetti, L. et al., 1991, Glia 19. 152-160]. Measurement was made twice and the mean value was calculated.

Test [2] has as its system matrix metalloproteinase I (MMP-1). Description: Inhibition of UVB-induced MMP-1 expression in human fibroblasts (ELISA). The test is classed as cell-based. The conditions noted are these: UVB 40 mJ/cm^2, 2nd day, relative to UV control; sample 10 μg/mL. How it is done:
Human fibroblasts were cultured on a 12-well plate incubator to a concentration of 10^5 cells/well. Then, after irradiating UVB at 40 mJ/cm^2, the medium was replaced by one including the ginseng berry extract of Example 1 (1 μg/mL and 10 μg/mL), the ginseng berry saponin concentrate of Example 2 (10 μg/mL), the ginseng root extract of Comparative Example 1 (10 μg/mL) or ginsenosides Rg1, Rg2, Rh1 or Re (10 μg/mL). 10 ng/mL TGF-β was used as a positive control substance. On the 2nd day of culturing, the cells were harvested and the quantity of produced matrix metalloproteinase I (MMP-1) was analyzed using ELISA. The result was calculated as a relative value with respect to the control group, which was irradiated with UV without treating with a test substance.

The subject of another test is IL1-β. Description: LPS-induced inflammatory factor IL1-β in mouse blood. The test is classed as in vivo. The conditions noted are these: mouse blood about 12 h after LPS, intra-abdominal. The method, then:
as §1, §2

The test system of test [3] is human HaCaT keratinocytes. Description: Antioxidative effect: removal of UV-generated ROS in HaCaT keratinocytes. The test is classed as cell-based. The conditions noted are these: ROS generated by UV in HaCaT; sample 10 μg/mL (Trolox given as (10)). The text has this:
Antioxidative effect of the ginseng berry extract was investigated by comparing the ability of removing reactive oxygen species (ROS) generated in human HaCaT keratinocytes by ultraviolet (UV) radiation.

The subject of test [4] is Tumor Necrosis Factor α (TNF-α). Description: Inhibition of UV-induced TNF-α biosynthesis in human keratinocytes (ELISA). It counts as cell-based. The note with it: UVB 30 mJ/cm^2, 6-24 hours, relative to UV control; sample 10 μg/mL. The method, then: Human keratinocytes were cultured on a 12-well plate incubator to a concentration of 10^5 cells/well. Then, after irradiating UVB at 30 mJ/cm^2, the medium was replaced by one including the ginseng berry extract of Example 1 (0.1 μg/mL, 1 μg/mL and 10 μg/mL), the ginseng berry saponin concentrate of Example 2 (10 μg/mL), the ginseng root extract of Comparative Example 1 (0.1 μg/mL, 1 μg/mL and 10 μg/mL) or ginsenosides Rg1, Rg2, Rh1 or Re (10 μg/mL). After 6-24 hours of culturing, the cells were harvested and the quantity of TNF-α was analyzed using ELISA (Pharmingen 555212). The result was calculated as a relative value with respect to the control group, which was irradiated with UV without treating with a test substance.

As to `CC(C)=CCC[C@](C)(O[C@@H]1O[C@H](CO)[C@@H](O)[C@H](O)[C@H]1O)[C@H]1CC[C@]2(C)[C@@H]1[C@H](O)C[C@@H]1[C@@]3(C)CC[C@H](O)C(C)(C)[C@@H]3[C@@H](O[C@@H]3O[C@H](CO)[C@@H](O)[C@H](O)[C@H]3O)C[C@]12C` [Rg1], in the test on PGE2 (group (10 μg/mL)), the “PGE2, Mean ± standard deviation” value came to 6.32 ± 0.04 ng/mL; the “PGE2, Result 1” value is listed as 6.29 ng/mL; the “PGE2, Result 2” value amounted to 6.35 ng/mL. Besides, in the test with PGE2 (group (20 μg/mL)), the “PGE2, Mean ± standard deviation” value is recorded as 6.26 ± 0.07 ng/mL; the “PGE2, Result 1” value was 6.31 ng/mL; the “PGE2, Result 2” value is 6.21 ng/mL. Further, in the test with Human epidermal cells, the “Hyaluronic acid production (%)” value was found to be 100%. Besides, in test [1] (sample 10 μg/mL), the “NO generation relative to negative control (%)” value is 101.2%; the “NO generation, Mean ± standard deviation” value was found to be 16.83 ± 0.63 µM; the “NO generation, Result 1” value amounted to 16.38 µM; the “NO generation, Result 2” value is 17.27 µM. Besides, in test [1] (sample 20 μg/mL), the “NO generation relative to negative control (%)” value is on record as 99.3%; the “NO generation, Mean ± standard deviation” value was 16.50 ± 1.06 µM; the “NO generation, Result 1” value amounted to 15.75 µM; the “NO generation, Result 2” value is 17.25 µM. Further, the “MMP-1 expression (%)” value in test [2] stood at 98%. In the test with IL1-β (group (10 μg/mL)), the “IL1-β, Mean ± standard deviation” value amounted to 133.50 ± 7.78 pg/mL; the “IL1-β, Result 1” value amounted to 128 pg/mL; the “IL1-β, Result 2” value came to 139 pg/mL. Moreover, in the test on IL1-β (group (20 μg/mL)), the “IL1-β, Mean ± standard deviation” value was determined as 141.50 ± 9.19 pg/mL; the “IL1-β, Result 1” value is recorded as 135 pg/mL; the “IL1-β, Result 2” value turned out to be 148 pg/mL. For the same molecule, in test [3], the “Antioxidative effect (%)” value is recorded as 2%. The “TNF-α biosynthesis (%)” value in test [4] turned out to be 98%.
As for `CC(C)=CCC[C@](C)(O)[C@H]1CC[C@]2(C)[C@@H]1[C@H](O)C[C@@H]1[C@@]3(C)CC[C@H](O)C(C)(C)[C@@H]3[C@@H](O[C@@H]3O[C@H](CO)[C@@H](O)[C@H](O)[C@H]3O[C@@H]3O[C@@H](C)[C@H](O)[C@@H](O)[C@H]3O)C[C@]12C` [Rg2], in the test with PGE2 (group (10 μg/mL)), the “PGE2, Mean ± standard deviation” value came out at 6.15 ± 0.21 ng/mL; the “PGE2, Result 1” value worked out at 6 ng/mL; the “PGE2, Result 2” value amounted to 6.3 ng/mL. Further, in the test on PGE2 (group (20 μg/mL)), the “PGE2, Mean ± standard deviation” value was 6.09 ± 0.09 ng/mL; the “PGE2, Result 1” value is given as 6.15 ng/mL; the “PGE2, Result 2” value was 6.02 ng/mL. In addition, the “Hyaluronic acid production (%)” value with Human epidermal cells is reported as 105%. In test [1] (sample 10 μg/mL), the “NO generation relative to negative control (%)” value turned out to be 100.3%; the “NO generation, Mean ± standard deviation” value was 16.68 ± 0.45 µM; the “NO generation, Result 1” value was 17.00 µM; the “NO generation, Result 2” value amounted to 16.36 µM. In addition, in test [1] (sample 20 μg/mL), the “NO generation relative to negative control (%)” value stood at 97.4%; the “NO generation, Mean ± standard deviation” value was 16.19 ± 0.01 µM; the “NO generation, Result 1” value was found to be 16.18 µM; the “NO generation, Result 2” value came to 16.19 µM. The “MMP-1 expression (%)” value in test [2] came out at 90%. In addition, in the test with IL1-β (group (10 μg/mL)), the “IL1-β, Mean ± standard deviation” value was determined as 131.50 ± 3.54 pg/mL; the “IL1-β, Result 1” value was found to be 129 pg/mL; the “IL1-β, Result 2” value is listed as 134 pg/mL. For the same molecule, in the test on IL1-β (group (20 μg/mL)), the “IL1-β, Mean ± standard deviation” value is 125.00 ± 8.49 pg/mL; the “IL1-β, Result 1” value is recorded as 131 pg/mL; the “IL1-β, Result 2” value amounted to 119 pg/mL. The “Antioxidative effect (%)” value in test [3] is reported as 1%. The “TNF-α biosynthesis (%)” value in test [4] was 101%.
Regarding `CC(C)=CCC[C@](C)(O)[C@H]1CC[C@]2(C)[C@@H]1[C@H](O)C[C@@H]1[C@@]3(C)CC[C@H](O)C(C)(C)[C@@H]3[C@@H](O[C@@H]3O[C@H](CO)[C@@H](O)[C@H](O)[C@H]3O)C[C@]12C` [Rh1], in the test on PGE2 (group (10 μg/mL)), the “PGE2, Mean ± standard deviation” value is listed as 6.13 ± 0.04 ng/mL; the “PGE2, Result 1” value worked out at 6.15 ng/mL; the “PGE2, Result 2” value was 6.1 ng/mL. In addition, in the test on PGE2 (group (20 μg/mL)), the “PGE2, Mean ± standard deviation” value worked out at 5.46 ± 0.20 ng/mL; the “PGE2, Result 1” value was 5.6 ng/mL; the “PGE2, Result 2” value is reported as 5.32 ng/mL. Further, in the test on Human epidermal cells, the “Hyaluronic acid production (%)” value is given as 100%. Further, in test [1] (sample 10 μg/mL), the “NO generation relative to negative control (%)” value came out at 89.4%; the “NO generation, Mean ± standard deviation” value is 14.86 ± 0.07 µM; the “NO generation, Result 1” value is 14.92 µM; the “NO generation, Result 2” value stood at 14.81 µM. In addition, in test [1] (sample 20 μg/mL), the “NO generation relative to negative control (%)” value is recorded as 75.1%; the “NO generation, Mean ± standard deviation” value was found to be 12.48 ± 0.26 µM; the “NO generation, Result 1” value was determined as 12.29 µM; the “NO generation, Result 2” value is 12.66 µM. Also, the “MMP-1 expression (%)” value in test [2] is reported as 90%. For the same molecule, in the test with IL1-β (group (10 μg/mL)), the “IL1-β, Mean ± standard deviation” value was 121.50 ± 7.78 pg/mL; the “IL1-β, Result 1” value is 116 pg/mL; the “IL1-β, Result 2” value stood at 127 pg/mL. For the same molecule, in the test on IL1-β (group (20 μg/mL)), the “IL1-β, Mean ± standard deviation” value is 112.75 ± 6.72 pg/mL; the “IL1-β, Result 1” value is on record as 108 pg/mL; the “IL1-β, Result 2” value came to 117.5 pg/mL. In addition, the “Antioxidative effect (%)” value in test [3] was 3%. In test [4], the “TNF-α biosynthesis (%)” value is recorded as 98%.

These data come from patent US10086028B2, “Method for treating vascular inflammation, improving skin beauty and improving male sexual function using ginseng berry” (AMOREPACIFIC CORPORATION, priority 2007, dated 2018).
